Patent US20100146646A1, “METHOD OF MONITORING RETINOPATHY” (priority 2007, published 2010)
“Also recorded” adds a separate entry of the source.

Assays:
[1] = system: transgenic GFAP-GFP mice (glia of optic disc and central retina); test: In vivo scanning laser opthalmoscope (SLO) imaging of GFP fluorescence in the optic disc after neurotoxicant injection; design: species or system mouse; conditions: for time point of maximum GFP fluorescence around the fringe of the optic disc: adult GFAP-GFP mice, ip neurotoxicant, SLO imaging over 14 days; for retinal gliosis: neurotoxicant-treated GFAP-GFP mice, summary statement
Text: Transgenic GFAP-GFP mice: The generation and genotyping of the transgenic GFAP-GFP mice were done as previously described (Zhuo et al., 1997). Adult mice (8-10 weeks old) in the FVB/N background were used in the present study. Animal husbandry was provided by National University of Singapore animal holding unit. The experimental protocol covering the current study was approved by the Institutional Animal Care and Use Committee.
(§1) The test compounds 2′-CH3-MPTP (M103), KA (K0250) and IDPN (317306) were purchased from Sigma-Aldrich (St. Louis, Mo., USA). Each mouse in the treatment group received either 4 intraperitoneal (ip) injections of 2′-CH3-MPTP (15 mg/kg in saline, ip, once every 2 hours), a single injection of KA (25 mg/kg in saline, ip) or 3 injections of IDPN (500 mg/kg, ip, once daily). For each neurotoxicant-treated group (n=3), saline was used as a vehicle for the control group (n=3). Retinal imaging was subsequently performed over a period of 14 days.
Preparation of Animals: Mice were Anaesthetized by Ip Injections with 0.15 ml/10 g body weight of Avertin (1.5% 2,2,2-tribromoethanol; T48402) purchased from Sigma-Aldrich (St. Louis, Mo., USA), and their pupils dilated with a drop of 0.5% Cyclogyl® sterile ophthalmic solution (cyclopentolate hydrochloride, Alcon®, Puurs, Belgium). Custom-made PMMA hard contact lenses (from Cantor & Nissel (Northamptonshire, UK) were used to correct optical aberration and to avoid dehydration of the mouse eyes. Careful examination by an eye specialist before scanning laser opthalmoscope imaging ruled out the presence of any corneal or lens opacities.
Scanning laser opthalmoscope (SLO) imaging: For the work described here, the second version of Heidelberg Retina Angiograph (HRA II) scanning laser opthalmoscope (Heidelberg Engineering, Dossenheim, Germany) modified for use on mice was employed. The scanning laser opthalmoscope (SLO) is a fundus imaging technique based on the scanning of the fundus with a laser beam from a point source, while the reflected light is detected by a photomultiplier. Incident and reflected light follow a co-axial path. Therefore, more light can pass through small eyes than with conventional fundus cameras. Several reports of SLO imaging in rats (Hossain et al., 1998; Khoobehi and Peyman, 1999; Cordeiro et al., 2004; Genevois et al., 2004) and mice (Jaissle et al., 2001; Xu et al., 2003) have been published, with the latest study by (Seeliger et al., 2005) and (Paques et al., 2006) in evaluating mouse fundus with the first version of the HRA (or HRA I). The HRA II features the two Argon lasers in the short wavelength range (488 nm and 514 nm) and two infrared diode lasers in the long wavelength range (795 nm and 830 nm). The 488 and 795 nm lasers are used for fluorescein and indocyanine green angiography respectively. Appropriate barrier filters of 500 nm and 800 nm, respectively, remove the reflected light with unchanged wavelength and allow only the light emitted by the dye upon stimulation to pass through. The finest definition is 768×768 pixels at an optical resolution of 10 μm/pixel and coupled with three fields of view (nominal values of 15°, 20° and 30°). The focus is adjustable over a +12/−12 diopters range using step increments of 0.25 diopters. A video acquisition mode (48 ms to 96 ms per image) is available. Within any area of interest, a stack of tomographic images (z-scans) up to a maximum depth of 8 mm can be automatically acquired.

[2] = system: transgenic GFAP-GFP mice (SNpc and striatum); test: Brain cryosections: tyrosine hydroxylase (TH) immunohistochemistry; format: in vivo, mouse; conditions: a day after administration, vs saline
Procedure: as §1
(§2) Retina wholemount and immunohistochemistry (IHC): After perfusing the mice with 1×PBS, followed by 4% fresh paraformaldehyde (in 1×PBS, pH 7.4), the brains were harvested and the eyes enucleated. The eyes were fixed immediately in 4% paraformaldehyde overnight at 4° C., after which they were dissected at the equator with the lens and vitreous removed. The retina was then dissected free from the choroid and sclera and whole mounted on a glass slide. Whole retina was mounted with Vectorshield mounting medium for fluorescence (Vector Laboratories, Inc., Burlingame, Calif., USA; H1000). The brains were first fixed in 4% paraformaldehyde for 4 hr at 4° C. and soaked in 30% sucrose at 4° C. overnight. The processed brain tissues were embedded in OTC freezing medium for sectioning on a cryostat (Leica Microsystems, Nussloch GmbH; CM-3050S). […]

[3] = system: transgenic GFAP-GFP mice (hippocampus, substantia nigra, striatum, olfactory bulb); test: Brain cryosections: transgenic GFP and GFAP immunohistochemistry (gliosis); format: in vivo, mouse
Procedure: as §1
Retina wholemount and immunohistochemistry (IHC): After perfusing the mice with 1×PBS, followed by 4% fresh paraformaldehyde (in 1×PBS, pH 7.4), the brains were harvested and the eyes enucleated. The eyes were fixed immediately in 4% paraformaldehyde overnight at 4° C., after which they were dissected at the equator with the lens and vitreous removed. The retina was then dissected free from the choroid and sclera and whole mounted on a glass slide. Whole retina was mounted with Vectorshield mounting medium for fluorescence (Vector Laboratories, Inc., Burlingame, Calif., USA; H1000). The brains were first fixed in 4% paraformaldehyde for 4 hr at 4° C. and soaked in 30% sucrose at 4° C. overnight. The processed brain tissues were embedded in OTC freezing medium for sectioning on a cryostat (Leica Microsystems, Nussloch GmbH; CM-3050S). Coronal cryosections (10 μm) of the hippocampus (bregma −1.94 mm, interaural 1.86 mm), SNpc (bregma −3.16 mm, interaural 0.64 mm) and olfactory bulb (bregma 4.28 mm, interaural 8.08 mm) according to the Atlas of Mouse Brain (Franklin and Paxinos, 2001), together with the retina wholemounts were used for IHC using rabbit polyclonal antibodies (in 1:200 dilution) against GFAP (Dako, Z0334). Sections of the SNpc and striatum (bregma 0.62 mm, interaural 4.42 mm) were used for IHC using rabbit polyclonal antibodies (in 1:200 dilution) against tyrosine hydroxylase (TH; Chemicon, Calif., USA; Ab-152). The bound primary antibodies on the tissue sections were stained with a goat IgG conjugated to Texas-red (Abeam, Ab7088) at 1:100 dilution for 2 hr at room temperature, and visualized using confocal microscopy (LSM 510 META, Carl Zeiss Microimaging GmbH, Jena Germany).

retinal Müller cells = conditions: injected into the vitreous of the eye; cited from earlier work
[4] = system: transgenic GFAP-GFP mice (whole-mount retina); test: Retina whole-mount: transgenic GFP and GFAP immunohistochemistry; format: in vivo, mouse; conditions: 7 days after a single ip injection (25 mg/kg), vs saline
Procedure: as §1, §2

[5] = system: neuronal and glial cells in the retina; conditions: cited from earlier work
[6] = a day after administration, vs saline
[7] = 7 days after administration, vs saline

## Cc1ccccc1C1=CCN(C)CC1 [2′-CH3-MPTP, 1-methyl-4(2′-methylphenyl)-1,2,3,6-tetrahydropyridine]
[1]
  time point of maximum GFP fluorescence around the fringe of the optic disc: 1 days
  retinal gliosis: elicits retinal gliosis
[1]; after administration of the neurotoxicant (4 x 15 mg/kg ip)
  time of maximal increase in GFP expression in the optic disc: 24 h
[2]
  TH-immunoreactive midbrain dopaminergic neurons in the SNpc: observable tyrosine hydroxylase (TH) depletion; also recorded: marked depletion
  level of TH expression in the striatum: no change in TH expression could be visually observed; also recorded: no detectable changes
[3]; [6]
  GFP / gliosis in striatal astrocytes: acute gliosis; also recorded: substantial GFP increase
  gliosis in the substantia nigra: gliosis occurs extensively
[3]; a day after systemic administration
  GFP and GFAP expression in activated astrocytes of the brain: an increase in GFP and to a lesser extent, GFAP expression

## N#CCCNCCC#N [IDPN, 3,3-iminodipropionitrile]
[1]
  time point of maximum GFP fluorescence around the fringe of the optic disc: 7 days
  retinal gliosis: elicits retinal gliosis
[3]; 7 days after administration (3 x 500 mg/kg ip), vs saline
  gliosis / GFP-positive astrocytes co-localizing with GFAP-immunoreactive cells in the glomerular layer (GL) of the olfactory bulb: acute gliosis; also recorded: markedly more GFP-positive astrocytes
[3]; [7]
  GFAP-positive cells in the granular cell layer (GCL) of the olfactory bulb: strong increase of GFAP-positive cells

## C=C(C)[C@H]1CN[C@H](C(=O)O)[C@H]1CC(=O)O [KA, kainic acid]
[1]
  time point of maximum GFP fluorescence around the fringe of the optic disc: 7 days
  retinal gliosis: elicits retinal gliosis
Retinal Müller cells
  GFAP in the retinal Müller cells: up-regulation of GFAP
[4]
  gliosis in the nerve fiber layer (NFL) of whole-mount retina (transgenic GFP and endogenous GFAP): severe gliosis
[3]; 7 days after administration, compared to saline control
  level of GFP and GFAP expression in the entire hippocampus area (CA1, CA3, dentate gyrus): extremely high level of GFP and GFAP expression
[3]; [7]
  gliosis in astrocytes of the hippocampus (GFP and GFAP): severe reactive gliosis

## CN1CC=C(c2ccccc2)CC1 [MPTP, 1-methyl-4-phenyl-1,2,3,6-tetrahydropyrine]
[5]; several days after injection
  GFAP immunoreactivity of the glial cells of the retina: increased
[5]; within a week after systemic injection in mice
  microglia in the inner outer retina: microglia activation was observed
